# Measurements published in publication PMC5813016 (Nature Communications, 2018).
# Where “and” joins values, the source holds several entries; their conditions need not be identical. Equal values may be shown once.
# Assays:
# [1] = Plasma concentrations in monkey EBR study; format: in vivo, cynomolgus monkey; conditions: mean ± SD
# Protocol: For both compounds, blood collections occurred on day 1, day 2, and day 3. All blood samples were placed on wet ice until centrifugation. Following centrifugation, the plasma was transferred to polypropylene tubes and stored frozen at –20 °C to –80 °C until analysis.
# [2] = Equilibrium dialysis, unbound fraction in rat brain homogenate; format: in vitro ADME; conditions: read-out: unbound fraction in rat brain homogenate (fu,b)
# [3] = Equilibrium dialysis, unbound fraction in monkey plasma; format: in vitro ADME; conditions: read-out: unbound fraction in monkey plasma (fu,p)
# human D1R Y194F mutant = assay: cAMP assay, D1R mutant Y194F; conditions: relative to wild-type D1R; each table line is one experiment (Experiment # 1-6)
# human D1R S199A mutant = assay: cAMP assay, D1R mutant S199A; conditions: relative to wild-type D1R; each table line is one experiment (Experiment # 1-6)
# human D1R W321A mutant = assay: cAMP assay, D1R mutant W321A; conditions: relative to wild-type D1R; each table line is one experiment (Experiment # 1-6)
# human D1R W318A mutant = assay: cAMP assay, D1R mutant W318A; conditions: relative to wild-type D1R; each table line is one experiment (Experiment # 1-6)
# human D1R S188I mutant = assay: cAMP assay, D1R mutant S188I; conditions: relative to wild-type D1R; each table line is one experiment (Experiment # 1-6)
# [4] = Rat pharmacokinetic studies; format: in vivo, Wistar Hannover rat; conditions: for plasma concentration profile after oral administration: compared with SKF-38393; for clearance / Vd / bioavailability / half-life: male, Wistar Hannover, plasma; for clearance / Vd: iv; for Vd: read-out: Vdss; for bioavailability: oral bioavailability; for half-life: read-out: t½ (converted)
# Protocol: Rat pharmacokinetic studies were conducted at BioDuro, Pharmaceutical Product Development, Inc. (Shanghai, China). Wistar Hannover rats (227–293 gram weight) were obtained from Vital River Laboratories (China). All animal studies were conducted in accordance with the Pfizer Institutional Animal Care and Use Committee (Groton, CT), using protocols approved by Pfizer PDM′s Global BA Committee (2009). Jugular vein-cannulated male Wistar Hanover rats were maintained on a 12 h light/dark cycle for a minimum of three days in a temperature-controlled and humidity-controlled environment with free access to food and water. Individual animals (n = 2 or 3 per dose/route) were administered a single dose of compound by either intravenous injection via tail vein or oral gavage based on body weight. […] The PF-6142 intravenous dose (1 mg/kg) was formulated in saline acidified with three molar equivalents of 1 N hydrochloric acid and the PF-6142 oral dose (5 mg/kg) was formulated in 0.5% methylcellulose. […] Formulations were agitated until all of the test article was dissolved. […] From each rat, serial blood samples were collected via jugular vein cannula prior to dose administration and at the following time points post-dose: 0.033 (i.v. only), 0.083, 0.25, 0.5, 1, 2, 4, 7, and 24 h. […] All blood samples were placed on wet ice until centrifugation. Following centrifugation, the plasma was transferred to polypropylene tubes and stored frozen at either −20 °C to −80 °C until analysis. Urine was collected from all intravenous-dosed rats into collection tubes from the collection intervals of 0–7 h and 7–24 h post-dose. […] All urine samples were stored at −80 °C until analysis. All samples were processed for quantitation of compound concentrations using protein precipitation methodology followed by analysis using liquid chromatography-tandem mass spectrometry (LC-MS/MS). […] The pharmacokinetic parameters (including those in Supplementary Table 3) were computed by non-compartmental analysis[61] using Watson Bioanalytical LIMS version 7.4 (Thermo Fischer Scientific, CA).
# human D1R S198A mutant = assay: cAMP assay, D1R mutant S198A; conditions: relative to wild-type D1R; each table line is one experiment (Experiment # 1-6)
# [5] = 1 mg/kg/day subcutaneous dose, Day 1, 1 h post-dose
# [6] = 1 mg/kg/day subcutaneous dose, Day 1, 6 h post-dose
# [7] = 1 mg/kg/day subcutaneous dose, Day 2, 1 h post-dose
# [8] = 1 mg/kg/day subcutaneous dose, Day 2, 6 h post-dose
# [9] = 1 mg/kg/day subcutaneous dose, Day 3, 1 h post-dose
# [10] = 1 mg/kg/day subcutaneous dose, Day 3, 6 h post-dose
# [11] = 0.9 mg/kg/day split oral dose, Day 1, 5 h post-dose
# [12] = 0.9 mg/kg/day split oral dose, Day 2, 1 h post-dose
# [13] = 0.9 mg/kg/day split oral dose, Day 2, 5 h post-dose
# [14] = 0.9 mg/kg/day split oral dose, Day 3, 1 h post-dose
# [15] = 0.9 mg/kg/day split oral dose, Day 3, 5 h post-dose
smiles,measurement,setting,value
"NC[C@@H]1O[C@H](C23CC4CC(CC(C4)C2)C3)Cc2c1ccc(O)c2O [A-77636, reference compound]",Cp (total plasma concentration),[1]; [5],79.3 ± 11.4 ng/mL
same,"Cp,u (unbound plasma concentration)",[1]; [5],10.6 ± 1.5 nM
same,Cp (total plasma concentration),[1]; [6],34.8 ± 3.5 ng/mL
same,"Cp,u (unbound plasma concentration)",[1]; [6],4.6 ± 0.5 nM
same,Cp (total plasma concentration),[1]; [7],73.1 ± 13.8 ng/mL
same,"Cp,u (unbound plasma concentration)",[1]; [7],9.8 ± 1.8 nM
same,Cp (total plasma concentration),[1]; [8],46.3 ± 11.7 ng/mL
same,"Cp,u (unbound plasma concentration)",[1]; [8],6.2 ± 1.6 nM
same,Cp (total plasma concentration),[1]; [9],85.5 ± 19.0 ng/mL
same,"Cp,u (unbound plasma concentration)",[1]; [9],11.4 ± 2.5 nM
same,Cp (total plasma concentration),[1]; [10],40.6 ± 2.8 ng/mL
same,"Cp,u (unbound plasma concentration)",[1]; [10],5.4 ± 0.4 nM
same,fraction unbound,[2],0.0012
same,fraction unbound,[3],0.044
Cc1cc(Oc2nccc3occc23)ccc1-c1c(C)ncnc1C [PF-8871],"fold shift of cAMP functional potency, Y194F (EC50 mutant/ EC50 WT)",human D1R Y194F mutant,1.3
same,"fold shift of cAMP functional potency, S199A (EC50 mutant/ EC50 WT)",human D1R S199A mutant,4.3
same,"fold shift of cAMP functional potency, W321A (EC50 mutant/ EC50 WT)",human D1R W321A mutant,21.4
same,"fold shift of cAMP functional potency, W318A (EC50 mutant/ EC50 WT)",human D1R W318A mutant,12.5
same,"fold shift of cAMP functional potency, S188I (EC50 mutant/ EC50 WT)",human D1R S188I mutant,5.8 and 10.8 and 8.7
Cc1cc(Oc2nccc3occc23)ccc1-c1c(C)ncc2nccn12 [PF-6142],"fold shift of cAMP functional potency, S199A (EC50 mutant/ EC50 WT)",human D1R S199A mutant,8.7 and 10.0
same,"fold shift of cAMP functional potency, W321A (EC50 mutant/ EC50 WT)",human D1R W321A mutant,22.7 and 21.1
same,plasma concentration profile after oral administration,[4],more sustained plasma concentration profiles
same,clearance,[4],42.5 mL/min/kg
same,Vd,[4],2.4 L/kg
same,bioavailability,[4],85.4%
same,half-life,[4],66 min
same,"fold shift of cAMP functional potency, W318A (EC50 mutant/ EC50 WT)",human D1R W318A mutant,16.3 and 20.4
same,"fold shift of cAMP functional potency, S188I (EC50 mutant/ EC50 WT)",human D1R S188I mutant,10.6 and 8.5 and 10.1 and 6.7
same,"fold shift of cAMP functional potency, S198A (EC50 mutant/ EC50 WT)",human D1R S198A mutant,6.0 and 7.0 and 6.4 and 7.5
Cc1n[nH]c(=O)c(C)c1-c1ccc(Oc2nccc3occc23)cc1F [PF-2334],Cp (total plasma concentration),"[1]; 0.9 mg/kg/day split oral dose (0.6 + 0.3 mg/kg 8 h later), Day 1, 1 h post-dose",41.9 ± 9.4 ng/mL
same,"Cp,u (unbound plasma concentration)","[1]; 0.9 mg/kg/day split oral dose, Day 1, 1 h post-dose",4.8 ± 1.1 nM
same,Cp (total plasma concentration),[1]; [11],47.0 ± 13.9 ng/mL
same,"Cp,u (unbound plasma concentration)",[1]; [11],5.4 ± 1.6 nM
same,Cp (total plasma concentration),[1]; [12],71.4 ± 20.1 ng/mL
same,"Cp,u (unbound plasma concentration)",[1]; [12],8.1 ± 2.3 nM
same,Cp (total plasma concentration),[1]; [13],99.0 ± 36.3 ng/mL
same,"Cp,u (unbound plasma concentration)",[1]; [13],11.3 ± 4.1 nM
same,Cp (total plasma concentration),[1]; [14],89.5 ± 49.4 ng/mL
same,"Cp,u (unbound plasma concentration)",[1]; [14],10.2 ± 5.6 nM
same,Cp (total plasma concentration),[1]; [15],106 ± 40 ng/mL
same,"Cp,u (unbound plasma concentration)",[1]; [15],12.1 ± 4.5 nM
same,fraction unbound,[2],0.021
same,plasma concentration profile after oral administration,[4],more sustained plasma concentration profiles
same,clearance,[4],20.8 mL/min/kg
same,Vd,[4],1.2 L/kg
same,bioavailability,[4],57.2%
same,half-life,[4],48 min
same,fraction unbound,[3],0.04
